From patent publication US20010014324A1 (priority 1998, published 2001)

Legend:
Phytophthora infestans = type: in vivo; conditions: potato; standard chemical inducer at 500 ppm
[1] = system: Puccinia recondita spp. tritici; assay: Induced plant defense on wheat against Puccinia recondita spp. tritici (spray treatment); type: in vivo
Description: Ten seeds of wheat ([…]) of the variety “Arina” were grown in pots of 8 cm diameter in a mixture of ⅓ sand and ⅔ TKS1® soil at +25° C. in a 16/8 h light/dark regime. for 7 days till the primary leaf was fully expended.
Brown rust strain Puccinia recondita spp. tritici was propagated on the same variety of wheat. Fully infected, sporulating leaves were cut and the spores dusted onto water containing 0.05% of Tween 20®. The inoculum density was adjusted to 100,000 spores per ml.
Wheat plants with the secondary leaf just emerging were sprayed 7 and 3 days before inoculation. The entire plant was sprayed with PEN extract containing 1-2 g of glucose equivalents and 0.05% of Tween 20 to near run-off with an air driven spray pistol, model JATO 232 FR at 0.5 bar.
After the treatment plants were kept in the greenhouse till they were challenge inoculated. Control plants were mock treated with distilled water.
Treated or control plants were sprayed with approximately 3 ml of sporangia suspension in a ventilated inoculation chamber using an air driven spray pistol, model JATO 232 FR at 0.2 bar to generate a homogeneous layer of fine troplets on the whole seedling.
When the troplets had dried, plants were transferred to Plexiglas boxes and kept at +20° C. and a 60% relative humidity for 24 h in the dark then light was switched on and the plants kept under the same conditions for additional four days. Afterwards plants were returned to the greenhouse and kept at standard conditions as described above.
10 days after inoculation, when the fungus sporulated on control plants, the degree of infection was visually determined as % of infected leaf area on the inoculated leaves plants. The degree of protection was calculated with respect to the control plants according to the formula: [formula]

SMILES	% infected leaf area (Phytophthora infestans) [%]	% protection (Phytophthora infestans) [%]	% infected ([1]; concentration 30 ppm) [%]	% protection ([1]; concentration 30 ppm) [%]	% infected ([1]; concentration 60 ppm) [%]	% protection ([1]; concentration 60 ppm) [%]
CC(N)CC(=O)O (stereo not drawn) [BABA, beta-butyric acid]	23	61				
CSC(=O)c1cccc2nnsc12 [CGA 245 704]			31.3	48.8	60	20
